In assay [1] the target is T1, human notum pectinacetyltransferase (Homo sapiens, UniProt Q6P988).
T1 construct: made in house; unpurified conditioned medium used
T1 sequence (Q6P988 20-496): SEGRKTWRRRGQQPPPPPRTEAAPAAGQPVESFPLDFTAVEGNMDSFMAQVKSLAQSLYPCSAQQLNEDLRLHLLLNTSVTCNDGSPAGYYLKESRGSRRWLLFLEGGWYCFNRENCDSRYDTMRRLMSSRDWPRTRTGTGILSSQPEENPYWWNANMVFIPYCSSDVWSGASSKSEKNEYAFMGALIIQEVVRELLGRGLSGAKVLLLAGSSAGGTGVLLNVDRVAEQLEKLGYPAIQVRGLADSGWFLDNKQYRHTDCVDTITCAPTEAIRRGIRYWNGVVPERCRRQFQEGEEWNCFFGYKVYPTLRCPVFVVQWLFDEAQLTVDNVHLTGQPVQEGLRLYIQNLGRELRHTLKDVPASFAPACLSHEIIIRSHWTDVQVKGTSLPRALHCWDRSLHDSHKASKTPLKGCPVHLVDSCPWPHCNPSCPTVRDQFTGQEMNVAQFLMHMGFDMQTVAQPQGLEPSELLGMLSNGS
The experiment in a line: Reporter assay (CellSensor LEF/TCF-bla FreeStyle 293F cells, Wnt3a and notum conditioned media). In kind it is cell-based. As to conditions: class symbols. As to the method: Plasmid containing human notum pectinacetyltransferase in pcDNA3.1(+) vector was transfected into HEK (293 cells and clones were selecting by growing in presence of 400 ug/mL of G418. The clone containing highest expression of human notum pectinacetyltransferase in the conditioned media was maintained for all future activity assays. L cells overexpressing and secreting Wnt3a into the conditioned media were purchased from ATCC.
The assay protocol was as follows. […] The cell growth medium consisted of DMEM with 10% Dialyzed FBS, 5 μg/ml Blasticidin (Invitrogen, R210-01), 0.1 mM NEAA, 25 mM HEPES and 1×GPS. Cells were then trypsinized by first rinsing with PBS, followed by addition of 5 mL of trypsin and incubation of plates at room temperature for two minutes. A total of 10 mL of assay media (Opti-MEM, plus 0.5% dialyzed FBS, 0.1 mM NEAA, 1 mM sodium pyruvate, 10 mM HEPES, 1×GPS) was then added per 15 cm plate. Cells were counted and suspended at 0.75 million cells per mL. […] After incubation of cells at 37° C. for 3 hours, 10 μL of 30 mM LiCl in assay medium was added per well, followed by incubation at 37° C. for another 3 hours. […] Ten μL of the Wnt3a/notum pentinacetyltransferase mixture was then transferred from Greiner plates to each well of the 384-well plates containing the CellSensor cells.
A general note: In a reporter assay the amount or activity of a reporter protein is the signal.

In assay [2] the target is T1, human notum pectinacetyltransferase. The experiment in a line: Binding assay (OPTS esterase substrate, fluorimetric). In kind it is biochemical. The following applies: class symbols. How it is done: Plasmid containing human notum pectinacetyltransferase in pcDNA3.1(+) vector was transfected into HEK (293 cells and clones were selecting by growing in presence of 400 ug/mL of G418. Condition media from these cells was used for the assay.

pEC50, pIC50: −log10 of the molar value. Bounds are passed on as bounds.

What is called pEC50 is the EC50 on a negative log10 scale, so that one unit is a factor of ten. One may read the pIC50 as the IC50 on a negative log10 scale, so that one unit is a factor of ten. Higher therefore signals a small IC50. For `COc1ccc2c(c1Cl)CCc1cc(C(=O)N3CCC(C#N)C3)sc1-2` (centres unmarked), the pEC50 in assay [1] is greater than 7.30. The same compound had a pIC50 in assay [2] greater than 7.00.
On the same counts, the results for `N#CC1CCN(C(=O)c2cc3c(s2)-c2cccc(F)c2CC3)C1` (centres unmarked) are greater than 7.30 and greater than 7.00.
With `O=C1CCN(C(=O)c2cc3c(s2)-c2ccc(Cl)c(Cl)c2OC3)C1`, the pEC50 in assay [1] was greater than 7.30. Besides, the pIC50 in assay [2] is greater than 7.00.
On the same counts, the results for `N#CC1CCN(C(=O)c2cc3c(s2)-c2ccc(Cl)c(Cl)c2OC3)C1` (centres unmarked) are greater than 7.30 and greater than 7.00.
On the same counts, the results for `CC1Cc2ccccc2-c2sc(C(=O)O)cc21` (centres unmarked) are greater than 7.30 and greater than 5.70.
On the same counts, the results for `NC(=O)c1cc2c(s1)-c1ccccc1S(=O)(=O)C2` are greater than 7.30 and greater than 6.00.
Compound `COc1ccc2c(c1Br)CCc1cc(C(=O)O)sc1-2` gave a pEC50 in assay [1] greater than 7.30. The compound also showed a pIC50 in assay [2] greater than 7.30.
`O=C(O)c1cc2c(s1)-c1cccc(Cl)c1OC2` gave a pEC50 in assay [1] greater than 7.30. For the same compound, in assay [2], the pIC50 was greater than 6.00.
As to `NC(=O)c1cc2c(s1)-c1cccc(Cl)c1CC2`, the pEC50 in assay [1] is greater than 7.30. This compound had a pIC50 in assay [2] greater than 6.00.
On the same counts, the results for `O=C(O)c1cc2c(s1)-c1cccc(Cl)c1CC2` are greater than 7.30 and greater than 7.00.
On the same counts, the results for `Cc1cc(Cl)c2c(c1)-c1sc(C(N)=O)cc1CC2` are greater than 7.30 and greater than 7.30.
On the same counts, the results for `NC(=O)c1cc2c(s1)-c1c(F)ccc(Cl)c1OC2` are greater than 7.30 and greater than 7.30.
Regarding `O=C(O)c1cc2c(s1)-c1c(F)ccc(Cl)c1OC2`, the pEC50 in assay [1] is greater than 7.30. In assay [2], this compound showed a pIC50 greater than 6.00.
On the same counts, the results for `Cc1ccc(Cl)c2c1-c1sc(C(N)=O)cc1CO2` are greater than 7.30 and greater than 7.30.
On the same counts, the results for `N#Cc1cccc2c1OCc1cc(C(N)=O)sc1-2` are greater than 7.30 and greater than 6.00.
On the same counts, the results for `COc1cc(F)c2c(c1)-c1sc(C(=O)O)cc1CC2` are greater than 7.30 and greater than 6.00.
`Cc1cccc2c1OCc1cc(C(=O)O)sc1-2` had a pEC50 in assay [1] greater than 7.30. This compound also gave a pIC50 in assay [2] greater than 5.70.
On the same counts, the results for `NC(=O)c1cc2c(s1)-c1ccc(F)c(F)c1CC2` are greater than 7.30 and greater than 7.30.
As to `O=C(O)c1cc2c(s1)-c1cc(F)cc(F)c1OC2`, the pEC50 in assay [1] is greater than 7.30. For the same compound, the pIC50 in assay [2] is greater than 7.30.
In assay [1], `CC1Cc2cc(C(N)=O)sc2-c2cc(F)cc(F)c21` (centres unmarked) showed a pEC50 greater than 7.30. Besides, the pIC50 in assay [2] was greater than 7.30.
For `CC1Cc2cc(C(=O)O)sc2-c2cc(F)cc(F)c21` (centres unmarked), the negative-log EC50 (pEC50) in assay [1] was greater than 7.30. In assay [2], the pIC50 is greater than 7.30.
`NC(=O)c1cc2c(s1)-c1c(Cl)ccc(Cl)c1OC2` showed a pEC50 in assay [1] greater than 7.30. The negative logarithm of the IC50 (pIC50) in assay [2] was greater than 7.30.
In assay [1], `O=C(O)c1cc2c(s1)-c1c(Cl)ccc(Cl)c1OC2` gave a pEC50 greater than 7.30. Besides, the pIC50 in assay [2] was greater than 7.00.
On the same counts, the results for `O=C(O)c1cc2c(s1)-c1c(F)ccc(F)c1OC2` are greater than 7.30 and greater than 7.00.
On the same counts, the results for `CC1Cc2cc(C(N)=O)sc2-c2c(F)ccc(F)c21` (centres unmarked) are greater than 7.30 and greater than 7.30.
On the same counts, the results for `CC1Cc2cc(C(=O)O)sc2-c2c(F)ccc(F)c21` (centres unmarked) are greater than 7.30 and greater than 7.30.
In turn, `Cc1ccc(C)c2c1OCc1cc(C(N)=O)sc1-2` gave a pEC50 in assay [1] greater than 7.30. In addition, in assay [2], the negative-log IC50 (pIC50) is greater than 7.00.
`Cc1ccc(C)c2c1OCc1cc(C(=O)O)sc1-2`: in assay [1], the pEC50 is greater than 7.30. The compound also gave a negative-log IC50 (pIC50) in assay [2] greater than 5.70.
In assay [1], `CN(C)c1ccc2c(c1)CCc1cc(C(=O)O)sc1-2` had a pEC50 greater than 6.30. The pIC50 in assay [2] is greater than 5.70.
As for `CNc1ccc2c(c1)CCc1cc(C(=O)O)sc1-2`, the pEC50 in assay [1] was greater than 7.30. This compound showed a pIC50 in assay [2] greater than 5.70.
On the same counts, the results for `NC(=O)c1cc2c(s1)-c1ccc(Cl)cc1OC2` are greater than 7.30 and greater than 7.00.
On the same counts, the results for `O=C(O)c1cc2c(s1)-c1ccc(Cl)cc1OC2` are greater than 7.30 and greater than 7.00.
In turn, `CC1Cc2cc(C(N)=O)sc2-c2ccc(Cl)cc21` (centres unmarked) showed a pEC50 in assay [1] greater than 7.30. Also, the pIC50 in assay [2] is greater than 7.00.
On the same counts, the results for `CC1Cc2cc(C(=O)O)sc2-c2ccc(Cl)cc21` (centres unmarked) are greater than 7.30 and greater than 6.00.
On the same counts, the results for `CC1(C)Cc2cc(C(N)=O)sc2-c2ccc(Cl)cc21` are greater than 7.30 and greater than 6.00.
In turn, `CC1(C)Cc2cc(C(=O)O)sc2-c2ccc(Cl)cc21` showed a pEC50 in assay [1] greater than 7.30. Moreover, the pIC50 in assay [2] was greater than 5.70.
On the same counts, the results for `O=C(O)c1cc2c(s1)-c1ccc(F)cc1OC2` are greater than 7.30 and greater than 5.70.
On the same counts, the results for `Cc1c(F)ccc2c1OCc1cc(C(N)=O)sc1-2` are greater than 7.30 and greater than 7.30.
On the same counts, the results for `Cc1c(F)ccc2c1OCc1cc(C(=O)O)sc1-2` are greater than 7.30 and greater than 6.00.
`O=C(O)c1cc2c(s1)-c1cc(F)c(F)cc1S(=O)(=O)C2` showed a pEC50 in assay [1] greater than 6.30. In assay [2], this compound showed a negative-log IC50 (pIC50) greater than 5.70.
On the same counts, the results for `O=C(O)c1cc2c(s1)-c1cc(F)c(F)cc1SC2` are greater than 7.30 and greater than 7.00.
On the same counts, the results for `CC1Cc2cc(C(=O)O)sc2-c2cc(F)c(F)cc21` (centres unmarked) are greater than 7.30 and greater than 6.00.
On the same counts, the results for `CC1Cc2cc(C(N)=O)sc2-c2cc(F)c(F)cc21` (centres unmarked) are greater than 7.30 and greater than 7.30.
As to `CC1(C)Cc2cc(C(=O)O)sc2-c2cc(F)c(F)cc21`, in assay [1], the pEC50 was greater than 7.30. Besides, the pIC50 in assay [2] is greater than 5.70.
On the same counts, the results for `NC(=O)c1cc2c(s1)-c1c(cc(F)c(F)c1F)OC2` are greater than 7.30 and greater than 7.30.
On the same counts, the results for `NC(=O)c1cc2c(s1)-c1cc(Br)cc(Cl)c1OC2` are greater than 7.30 and greater than 6.00.
With `O=C(O)c1cc2c(s1)-c1cc(Br)cc(Cl)c1OC2`, the pEC50 in assay [1] was greater than 7.30. In assay [2], this compound had a pIC50 greater than 7.30.
In assay [1], `NC(=O)c1cc2c(s1)-c1cc(Cl)ccc1SC2` had a pEC50 greater than 7.30. Also, the pIC50 in assay [2] was greater than 6.00.
On the same counts, the results for `NC(=O)c1cc2c(s1)-c1cc(Cl)cc(F)c1OC2` are greater than 7.30 and greater than 7.00.
In the case of `Cc1cc(Cl)cc2c1OCc1cc(C(N)=O)sc1-2`, the pEC50 in assay [1] is greater than 7.30. Further, the pIC50 in assay [2] is greater than 6.00.
On the same counts, the results for `Cc1cc(Cl)cc2c1OCc1cc(C(=O)O)sc1-2` are greater than 7.30 and greater than 6.00.
In assay [1], `O=C(O)c1cc2c(s1)-c1cc(Cl)c(C(F)(F)F)cc1OC2` had a pEC50 greater than 7.30. Further, the pIC50 in assay [2] is greater than 6.00.
On the same counts, the results for `O=C(O)c1cc2c(s1)-c1cc(F)ccc1S(=O)(=O)C2` are greater than 7.30 and greater than 6.00.
On the same counts, the results for `CC1Cc2cc(C(=O)O)sc2-c2cc(F)ccc21` (centres unmarked) are greater than 7.30 and greater than 7.30.
On the same counts, the results for `Cc1ccc2c(c1)-c1sc(C(=O)O)cc1CO2` are greater than 7.30 and greater than 6.00.
For `Cc1ccc2c(c1)-c1sc(C(N)=O)cc1CS2`, the pEC50 in assay [1] is greater than 7.30. The compound also showed a pIC50 in assay [2] greater than 5.70.
On the same counts, the results for `NC(=O)c1cc2c(s1)-c1c(F)cccc1OC2` are greater than 7.30 and greater than 7.30.
As for `COc1ccc2c(c1Cl)CCc1cc(C(=O)N3CCC(F)C3)sc1-2` (centres unmarked), in assay [1], the pEC50 is greater than 7.30. This compound also showed a pIC50 in assay [2] greater than 7.30.
For the compound `COc1ccc2c(c1Cl)CCc1cc(C(=O)N3CCC(OC)C3)sc1-2` (centres unmarked), the pEC50 in assay [1] was greater than 7.30. Moreover, in assay [2], the pIC50 is greater than 7.30.
In the case of `COC1CCN(C(=O)c2cc3c(s2)-c2cccc(F)c2CC3)C1` (centres unmarked), the pEC50 in assay [1] was greater than 7.30. Moreover, the pIC50 in assay [2] was greater than 7.30.
In turn, `O=C(c1cc2c(s1)-c1cccc(F)c1CC2)N1CCC(F)C1` (centres unmarked) showed a pEC50 in assay [1] greater than 7.30. Besides, the pIC50 in assay [2] was greater than 6.00.
On the same counts, the results for `O=C(c1cc2c(s1)-c1ccc(Cl)c(Cl)c1OC2)N1CCC(F)C1` (centres unmarked) are greater than 7.30 and greater than 6.00.
On the same counts, the results for `O=C(c1cc2c(s1)-c1ccc(F)c(F)c1CC2)N1CCC(F)C1` (centres unmarked) are greater than 7.30 and greater than 7.00.
Take `O=C(c1cc2c(s1)-c1cc(Cl)cc(F)c1OC2)N1CCC(F)C1` (centres unmarked): the pEC50 in assay [1] is greater than 7.30. This compound gave a pIC50 in assay [2] greater than 6.00.
